We go through 21 molecules from US4395417A, “Antihyperlipidemic compositions” (Research Corporation, priority 1980, dated 1983).

One experiment concerns the target T1, Acetyl-CoA Synthetase (Mus musculus, UniProt Q9QXG4).
T1 construct: gm wet tissue/30 min; from tissue
As to the kind of experiment: In vitro acetyl coenzyme A synthetase activity (method of Goodridge). In kind it is biochemical, mice. To be noted: for Acetyl-CoA Synthetase: Table 2, N = 6, x ± S.D., control 28.5 mg acetyl CoA formed/gm wet tissue/30 min.; for in vitro AcCoA synthetase: Table 3, N = 6, control 10.8 mg/g wet tissue.

The test system of a further experiment is serum cholesterol. As to the kind of experiment: Serum cholesterol of male CF1 mice (Liebermann-Burchard reaction). Type of experiment: in vivo. To be noted: Mus musculus, ip. On the procedure:
(§1) For hypolipidemic activity, the compounds were tested at 20 mg/kg/day administered I.P. to male CF1 mice (~30 g). On days 9 and 16 blood was collected by tail-vein bleeding. Serum cholesterol was determined by the Liebermann-Burchard reaction. Serum triglyceride levels were determined using the Hycel commercial kits on a separate group of mice, which were bled on day 14.

The target in another experiment is T2, Acetyl-CoA Carboxylase (Mus musculus, UniProt Q5SWU9).
T2 construct: 32,010 dpm/gm wet tissue/30 min; from tissue
Description: In vitro acetyl coenzyme A carboxylase activity (method of Greenspan and Lowenstein). To be noted: Table 2, N = 6, x ± S.D., control 32,010 dpm/gm wet tissue/30 min. In kind it is biochemical.

A further experiment has as its target T3, Fatty Acid Synthetase (Mus musculus, UniProt P19096).
T3 construct: gm wet tissue/30 min; from tissue
As to the kind of experiment: In vitro effect on fatty acid synthetase. To be noted: Table 2, N = 6, x ± S.D. In kind it is biochemical.

The target of the next experiment is T4, Citrate Lyase (Mus musculus, UniProt Q91V92).
T4 construct: 30.5 mg of citrate hydrolyzed/gm wet tissue/30 min; from tissue
T4 sequence (Q91V92 1-1091): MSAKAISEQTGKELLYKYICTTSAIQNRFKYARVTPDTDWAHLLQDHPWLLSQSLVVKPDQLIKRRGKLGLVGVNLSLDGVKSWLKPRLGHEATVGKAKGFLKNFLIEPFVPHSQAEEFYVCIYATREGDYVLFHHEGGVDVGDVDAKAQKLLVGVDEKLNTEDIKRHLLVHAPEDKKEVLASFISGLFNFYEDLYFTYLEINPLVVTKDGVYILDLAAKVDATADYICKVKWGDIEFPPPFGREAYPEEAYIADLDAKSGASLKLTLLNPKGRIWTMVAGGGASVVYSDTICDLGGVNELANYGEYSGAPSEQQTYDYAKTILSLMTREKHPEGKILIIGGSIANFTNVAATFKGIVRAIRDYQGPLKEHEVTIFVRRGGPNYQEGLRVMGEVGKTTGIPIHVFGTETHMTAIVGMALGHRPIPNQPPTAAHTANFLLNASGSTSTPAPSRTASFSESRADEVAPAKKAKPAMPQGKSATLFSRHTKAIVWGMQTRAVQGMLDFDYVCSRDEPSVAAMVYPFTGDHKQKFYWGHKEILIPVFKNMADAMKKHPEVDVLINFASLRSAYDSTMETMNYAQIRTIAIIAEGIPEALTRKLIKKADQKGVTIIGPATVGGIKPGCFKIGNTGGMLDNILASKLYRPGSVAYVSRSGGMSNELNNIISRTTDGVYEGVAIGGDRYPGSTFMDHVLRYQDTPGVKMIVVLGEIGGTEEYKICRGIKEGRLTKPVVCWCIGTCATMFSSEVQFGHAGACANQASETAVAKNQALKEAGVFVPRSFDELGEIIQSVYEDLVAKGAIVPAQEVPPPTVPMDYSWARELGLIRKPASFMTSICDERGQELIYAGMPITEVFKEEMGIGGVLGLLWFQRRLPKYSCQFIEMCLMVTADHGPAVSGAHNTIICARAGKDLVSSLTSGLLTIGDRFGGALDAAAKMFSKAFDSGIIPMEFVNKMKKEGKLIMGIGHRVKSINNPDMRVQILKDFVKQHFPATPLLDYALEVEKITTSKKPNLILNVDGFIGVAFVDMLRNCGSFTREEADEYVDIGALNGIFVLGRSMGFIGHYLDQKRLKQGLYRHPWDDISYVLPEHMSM
As to the kind of experiment: In vitro effect on citrate lyase. Type of experiment: biochemical. Conditions: Table 2, N = 6, x ± S.D., control 30.5 mg of citrate hydrolyzed/gm wet tissue/30 min.

Another experiment concerns serum triglyceride. As to the kind of experiment: Serum triglyceride levels of male mice (Hycel commercial kits). To be noted: Mus musculus, ip, 336 h. Type of experiment: in vivo, male CF1 mice. How it is done: as §1
[1] abbreviates: 216 h, Table 1, 20 mg/kg/day I.P., male CF1 mice, N = 6, 9th day, control value 118 mg %, read-out: Serum Cholesterol, 9th day.
[2] abbreviates: 384 h, Table 1, 20 mg/kg/day I.P., male CF1 mice, N = 6, 16th day, control value 122 mg %, read-out: Serum Cholesterol, 16th day.
Where [3] appears, read: Table 1, 20 mg/kg/day I.P., male mice, N = 6, 14th day, control value 137 mg %, read-out: Serum Triglyceride, 14th day.
Setting [4] is: 216 h, Table 3, mice, N = 6, 9th day, control 115 mg %, read-out: serum cholesterol, 9th day.
Setting [5] is: 384 h, Table 3, mice, N = 6, 16th day, control 118 mg %, read-out: serum cholesterol, 16th day.
[6] abbreviates: Table 3, mice, N = 6, control 138 mg %, read-out: serum triglycerides.

The structures appear in SMILES notation. Where two headings read alike, the source gives them in different places.

T1 sequence (Q9QXG4 whole entry): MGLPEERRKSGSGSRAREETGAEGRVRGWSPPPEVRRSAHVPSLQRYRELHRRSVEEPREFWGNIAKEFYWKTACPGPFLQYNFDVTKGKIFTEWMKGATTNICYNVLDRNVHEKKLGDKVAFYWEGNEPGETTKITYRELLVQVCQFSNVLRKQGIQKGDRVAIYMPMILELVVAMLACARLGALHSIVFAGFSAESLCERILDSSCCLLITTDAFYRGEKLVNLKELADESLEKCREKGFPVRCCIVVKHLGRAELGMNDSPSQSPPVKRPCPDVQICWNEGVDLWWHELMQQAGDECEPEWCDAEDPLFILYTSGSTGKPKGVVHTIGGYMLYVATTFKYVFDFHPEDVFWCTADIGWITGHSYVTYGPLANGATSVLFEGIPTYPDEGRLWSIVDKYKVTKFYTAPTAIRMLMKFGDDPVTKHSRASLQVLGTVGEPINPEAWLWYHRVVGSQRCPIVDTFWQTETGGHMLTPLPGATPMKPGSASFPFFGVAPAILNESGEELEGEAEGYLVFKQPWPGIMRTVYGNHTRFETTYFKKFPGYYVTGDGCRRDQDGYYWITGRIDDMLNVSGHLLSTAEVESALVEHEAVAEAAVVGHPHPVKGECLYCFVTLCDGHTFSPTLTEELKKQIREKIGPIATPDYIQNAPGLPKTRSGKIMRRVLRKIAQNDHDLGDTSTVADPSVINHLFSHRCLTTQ
T3 sequence (P19096 whole entry): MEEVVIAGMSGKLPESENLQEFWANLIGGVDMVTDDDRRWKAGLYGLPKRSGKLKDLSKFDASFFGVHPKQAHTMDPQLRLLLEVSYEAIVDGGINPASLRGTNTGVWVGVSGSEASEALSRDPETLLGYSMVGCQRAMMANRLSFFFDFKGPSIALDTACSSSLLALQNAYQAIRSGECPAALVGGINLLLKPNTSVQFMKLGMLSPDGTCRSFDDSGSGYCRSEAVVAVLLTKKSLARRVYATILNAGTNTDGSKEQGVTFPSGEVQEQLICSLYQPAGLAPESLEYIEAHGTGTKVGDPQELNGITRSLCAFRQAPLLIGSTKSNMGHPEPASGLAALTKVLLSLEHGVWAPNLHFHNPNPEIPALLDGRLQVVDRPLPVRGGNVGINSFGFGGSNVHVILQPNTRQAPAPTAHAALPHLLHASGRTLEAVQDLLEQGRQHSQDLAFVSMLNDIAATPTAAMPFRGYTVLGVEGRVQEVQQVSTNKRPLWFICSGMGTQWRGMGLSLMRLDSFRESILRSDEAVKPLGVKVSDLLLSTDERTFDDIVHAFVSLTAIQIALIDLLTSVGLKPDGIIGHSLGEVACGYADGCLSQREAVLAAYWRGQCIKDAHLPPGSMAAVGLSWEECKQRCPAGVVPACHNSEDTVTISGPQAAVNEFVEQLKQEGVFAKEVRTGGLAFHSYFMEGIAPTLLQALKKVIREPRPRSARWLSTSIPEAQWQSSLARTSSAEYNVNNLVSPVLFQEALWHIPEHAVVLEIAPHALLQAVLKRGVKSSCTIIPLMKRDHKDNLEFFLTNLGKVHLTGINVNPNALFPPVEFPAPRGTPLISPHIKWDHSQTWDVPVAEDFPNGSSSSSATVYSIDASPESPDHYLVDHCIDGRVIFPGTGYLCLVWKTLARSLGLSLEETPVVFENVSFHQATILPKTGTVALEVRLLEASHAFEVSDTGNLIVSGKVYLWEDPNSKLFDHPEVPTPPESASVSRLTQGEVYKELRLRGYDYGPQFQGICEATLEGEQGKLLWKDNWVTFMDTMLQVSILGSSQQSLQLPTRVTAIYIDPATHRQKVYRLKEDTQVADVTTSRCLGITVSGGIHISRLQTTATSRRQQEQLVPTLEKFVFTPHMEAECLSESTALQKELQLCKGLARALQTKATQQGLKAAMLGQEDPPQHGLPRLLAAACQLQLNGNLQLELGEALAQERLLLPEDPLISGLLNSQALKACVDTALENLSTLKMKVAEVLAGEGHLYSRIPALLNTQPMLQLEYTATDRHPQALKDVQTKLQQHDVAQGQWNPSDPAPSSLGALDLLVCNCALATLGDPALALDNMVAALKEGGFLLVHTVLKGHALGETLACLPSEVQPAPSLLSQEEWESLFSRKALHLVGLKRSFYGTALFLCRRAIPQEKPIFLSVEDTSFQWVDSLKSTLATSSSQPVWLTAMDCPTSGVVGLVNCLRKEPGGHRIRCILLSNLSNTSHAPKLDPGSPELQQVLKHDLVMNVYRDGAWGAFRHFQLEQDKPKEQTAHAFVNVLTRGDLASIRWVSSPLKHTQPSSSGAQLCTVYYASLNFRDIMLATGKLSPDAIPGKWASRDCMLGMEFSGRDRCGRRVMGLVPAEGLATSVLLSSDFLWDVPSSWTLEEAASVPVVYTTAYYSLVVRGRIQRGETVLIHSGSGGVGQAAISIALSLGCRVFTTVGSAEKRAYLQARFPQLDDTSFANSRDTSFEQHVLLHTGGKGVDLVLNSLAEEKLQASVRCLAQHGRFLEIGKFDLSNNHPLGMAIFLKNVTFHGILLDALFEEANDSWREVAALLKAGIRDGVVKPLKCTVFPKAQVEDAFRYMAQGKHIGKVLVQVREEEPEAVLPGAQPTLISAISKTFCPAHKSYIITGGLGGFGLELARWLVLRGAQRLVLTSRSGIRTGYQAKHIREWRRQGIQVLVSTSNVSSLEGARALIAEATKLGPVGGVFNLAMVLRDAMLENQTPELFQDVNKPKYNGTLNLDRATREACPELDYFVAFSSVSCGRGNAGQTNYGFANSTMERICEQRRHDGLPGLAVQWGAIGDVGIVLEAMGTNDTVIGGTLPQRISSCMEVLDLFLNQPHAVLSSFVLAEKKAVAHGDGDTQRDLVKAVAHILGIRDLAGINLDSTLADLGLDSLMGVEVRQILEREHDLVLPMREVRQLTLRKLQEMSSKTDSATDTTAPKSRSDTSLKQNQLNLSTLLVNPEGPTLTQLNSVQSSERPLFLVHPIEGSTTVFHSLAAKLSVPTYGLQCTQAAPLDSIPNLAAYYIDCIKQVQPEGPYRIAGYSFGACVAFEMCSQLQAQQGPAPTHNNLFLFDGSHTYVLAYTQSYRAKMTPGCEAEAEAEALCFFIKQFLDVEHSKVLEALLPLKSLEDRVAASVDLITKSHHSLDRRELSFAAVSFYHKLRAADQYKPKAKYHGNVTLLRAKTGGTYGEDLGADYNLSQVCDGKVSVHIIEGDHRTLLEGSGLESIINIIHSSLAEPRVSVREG

Turning to `O=C1NC(=O)c2cccc3cccc1c23` [1,8-Naphthalimide], on Acetyl-CoA Synthetase, the “Acetyl-CoA Synthetase” value was determined as 63 ± 9 % Control. For the same molecule, the figures for the response vs control in vivo at 20 mg/kg/day in the experiment on serum cholesterol (setting [1]), in the experiment on serum cholesterol (setting [2]) and in the experiment with serum triglyceride (setting [3]) were 81 ± 6%, 61 ± 7% and 87 ± 12%, respectively. The “Acetyl-CoA Carboxylase” value on Acetyl-CoA Carboxylase is reported as 106 ± 6 % Control. Moreover, the “Fatty Acid Synthetase” value at Fatty Acid Synthetase is given as 86 ± 8 % Control. For the same molecule, the “Citrate Lyase” value on Citrate Lyase stood at 66 ± 6 % Control.
Regarding `CC(=O)CCN1C(=O)c2cccc3cccc(c23)C1=O` [1-N--(1,8-Naphthalimido)butan-3-one], at Acetyl-CoA Synthetase, the “Acetyl-CoA Synthetase” value is reported as 88 ± 5 % Control. The figures for the response vs control in vivo at 20 mg/kg/day with serum cholesterol (setting [1]), in the experiment with serum cholesterol (setting [2]) and in the experiment on serum triglyceride (setting [3]) were 94 ± 12%, 86 ± 9% and 54 ± 15%, respectively. For the same molecule, the “Acetyl-CoA Carboxylase” value at Acetyl-CoA Carboxylase turned out to be 59 ± 8 % Control. For the same molecule, the “Fatty Acid Synthetase” value at Fatty Acid Synthetase stood at 103 ± 4 % Control. Besides, the “Citrate Lyase” value on Citrate Lyase is listed as 60 ± 5 % Control.
For `CC(=O)CCCCCN1C(=O)c2ccccc2C1=O` [1-N--phthalimidoheptan-6-one], the “in vitro AcCoA synthetase” value on Acetyl-CoA Synthetase is given as 85 ± 3 % Control. Besides, the response vs control in vivo at 20 mg/kg/day in the experiment on serum cholesterol (setting [4]) came to 71 ± 6%; in the experiment with serum cholesterol (setting [5]), 75 ± 12%; in the experiment on serum triglyceride (setting [6]), 88 ± 5%.
For the molecule `CC(=O)CCCCN1C(=O)c2ccccc2C1=O` [1-N--phthalimidohexan-5-one], the “in vitro AcCoA synthetase” value on Acetyl-CoA Synthetase is on record as 68 ± 6 % Control. Also, the response vs control in vivo at 20 mg/kg/day in the experiment on serum cholesterol (setting [4]) was determined as 65 ± 9%; in the experiment with serum cholesterol (setting [5]), 65 ± 7%; in the experiment on serum triglyceride (setting [6]) it was 77 ± 5%.
The like results for `CC(=O)CCCN1C(=O)c2ccccc2C1=O` [1-N--phthalimidopentan-4-one] were, in that order, 62 ± 3 % Control, 71 ± 6%, 63 ± 5% and 59 ± 13%.
For `O=C(O)CN1C(=O)c2ccccc2C1=O` [2-N--phthalimidoacetic acid] the same measures were 72 ± 12 % Control, 76 ± 7%, 68 ± 7% and 72 ± 9%.
As to `O=C(O)CCCN1C(=O)c2ccccc2C1=O` [4-N--phthalimidobutyric acid], on Acetyl-CoA Synthetase, the “in vitro AcCoA synthetase” value was 64 ± 12 % Control. Also, the response vs control in vivo at 20 mg/kg/day came out at 80 ± 7% in the experiment with serum cholesterol (setting [4]), 68 ± 6% with serum cholesterol (setting [5]) and 59 ± 14% with serum triglyceride (setting [6]).
The like results for `O=C(O)CCCCN1C(=O)c2ccccc2C1=O` [5-N--phthalimidovaleric] were, in that order, 76 ± 8 % Control, 83 ± 9%, 77 ± 4% and 54 ± 5%.
For the molecule `O=C(O)CCCCCN1C(=O)c2ccccc2C1=O` [6-N--phthalimidocaproic acid], the “in vitro AcCoA synthetase” value on Acetyl-CoA Synthetase was found to be 59 ± 9 % Control. Further, the response vs control in vivo at 20 mg/kg/day in the experiment on serum cholesterol (setting [4]) was 81 ± 6%; in the experiment on serum cholesterol (setting [5]), 67 ± 3%; in the experiment with serum triglyceride (setting [6]), 51 ± 12%.
For the molecule `CCN1C(=O)c2ccccc2C1=O` [N--ethylphthalimide], at Acetyl-CoA Synthetase, the “in vitro AcCoA synthetase” value was 82 ± 5 % Control. The response vs control in vivo at 20 mg/kg/day came out at 83 ± 4% in the experiment on serum cholesterol (setting [4]), 76 ± 2% in the experiment with serum cholesterol (setting [5]) and 87 ± 5% in the experiment with serum triglyceride (setting [6]).
For `CN1C(=O)c2ccccc2C1=O` [N--methylphthalimide] the same measures were 66 ± 12 % Control, 74 ± 4%, 74 ± 8% and 68 ± 8%.
The like results for `CCCCCCCN1C(=O)c2ccccc2C1=O` [N--n-heptylphthalimide] were, in that order, 71 ± 5 % Control, 99 ± 7%, 72 ± 4% and 84 ± 6%.
The like results for `CCCCCCN1C(=O)c2ccccc2C1=O` [N--n-hexylphthalimide] were, in that order, 71 ± 12 % Control, 96 ± 5%, 66 ± 4% and 84 ± 8%.
Regarding `CCCCCCCCN1C(=O)c2ccccc2C1=O` [N--n-octylphthalimide], the “in vitro AcCoA synthetase” value on Acetyl-CoA Synthetase worked out at 76 ± 7 % Control. The response vs control in vivo at 20 mg/kg/day came to 101 ± 7% in the experiment on serum cholesterol (setting [4]), 82 ± 3% in the experiment with serum cholesterol (setting [5]) and 77 ± 4% with serum triglyceride (setting [6]).
On to `CCCCCN1C(=O)c2ccccc2C1=O` [N--n-pentylphthalimide], for which, at Acetyl-CoA Synthetase, the “in vitro AcCoA synthetase” value came to 68 ± 6 % Control. Moreover, the values for the response vs control in vivo at 20 mg/kg/day in the experiment with serum cholesterol (setting [4]), in the experiment on serum cholesterol (setting [5]) and with serum triglyceride (setting [6]) were 76 ± 5%, 58 ± 3% and 75 ± 16%, respectively.
As for `CCCN1C(=O)c2ccccc2C1=O` [N--n-propylphthalimide], the “in vitro AcCoA synthetase” value on Acetyl-CoA Synthetase is given as 67 ± 3 % Control. Further, the response vs control in vivo at 20 mg/kg/day in the experiment on serum cholesterol (setting [4]) amounted to 96 ± 4%; in the experiment with serum cholesterol (setting [5]), 74 ± 5%; in the experiment on serum triglyceride (setting [6]), 81 ± 9%.
For `CC(=O)OCCCCN1C(=O)c2ccccc2C1=O` [N--phthalimidobutan-1-ol acetate] the same measures were 83 ± 2 % Control, 93 ± 9%, 66 ± 5% and 88 ± 7%.
For the molecule `CC(=O)OCCN1C(=O)c2ccccc2C1=O` [N--phthalimidoethyl acetate], the “in vitro AcCoA synthetase” value at Acetyl-CoA Synthetase amounted to 81 ± 6 % Control. In addition, the results for the response vs control in vivo at 20 mg/kg/day in the experiment with serum cholesterol (setting [4]), in the experiment on serum cholesterol (setting [5]) and in the experiment on serum triglyceride (setting [6]) were 93 ± 13%, 95 ± 1% and 82 ± 7%, respectively.
The like results for `CC(=O)OCN1C(=O)c2ccccc2C1=O` [N--phthalimidomethyl acetate] were, in that order, 62 ± 10 % Control, 61 ± 9%, 62 ± 4% and 57 ± 25%.
For `CC(=O)OCCCN1C(=O)c2ccccc2C1=O` [N--phthalimidopropan-1-ol acetate] the same measures were 84 ± 2 % Control, 102 ± 4%, 66 ± 2% and 89 ± 9%.
`O=C1NC(=O)c2ccccc21.[K]` [potassium phthalimide]: the “in vitro AcCoA synthetase” value at Acetyl-CoA Synthetase came out at 78 ± 6 % Control. Moreover, the results for the response vs control in vivo at 20 mg/kg/day with serum cholesterol (setting [4]), with serum cholesterol (setting [5]) and in the experiment on serum triglyceride (setting [6]) were 63 ± 6%, 78 ± 3% and 88 ± 4%, respectively.
